Measurements taken from patent publication US9603843B2, “Kits and methods for treating post traumatic stress disorder (PTSD) and hot flashes” (CAD MEDICAL SOLUTIONS, LLC, priority 2013, dated 2017).
Like-named read-outs stand apart in the source and are kept apart here.

How the values were obtained:
dogs = conditions: cited from earlier work
[1] = cited from earlier work
patient having PTSD = conditions: patient treated with CB without and with clonidine
Description: The procedure involved a local anesthetic mixed with clonidine delivered by a shot in the patient's neck in a procedure that is similar to an epidural given to women in labor.

peripheral nerve blocks = conditions: cited from earlier work
PTSD = conditions: Navy study, ultrasound guidance, not xray guidance; cited from earlier work
[2] = group 1: left SGB, 0.5% mepivacaine 1 ml

Cc1cccc(C)c1NC(=O)C1CCCCN1C (centres unmarked) [mepivacaine]
left brachial artery blood flow (BABF) after left SGB (dogs; group 1: 0.5% mepivacaine 1 ml): increased significantly
right BABF after left SGB (dogs; group 1: 0.5% mepivacaine 1 ml): decreased significantly
heart rate (HR) (dogs; [2]): no significant change
mean arterial pressure (MAP) (dogs; [2]): no significant change

CCCCN1CCCCC1C(=O)Nc1c(C)cccc1C (centres unmarked) [bupivacaine]
solubility ([1]; 95 percent ethanol): freely soluble
solubility ([1]; chloroform or acetone): slightly soluble
solubility ([1]; water): soluble

Clc1cccc(Cl)c1N=C1NCCN1 [clonidine]
patient-reported result with clonidine over the local anesthetic alone (patient having PTSD): significantly more effective result
duration of analgesia and anesthesia (peripheral nerve blocks; adjunct to intermediate-acting local anesthetics for some peripheral nerve blocks): improves
side-effects (peripheral nerve blocks; doses up to 150 µg): limited

CCCN1CCCC[C@H]1C(=O)Nc1c(C)cccc1C [Ropivacaine, ropivacaine]
RCSGI versus placebo (PTSD): no difference
